Among the test systems are COLO 205 colon; HOP-62 NSCLC; HOP-92 NSCLC; M14 melanoma; NCI/ADR-RES ovarian; OVCAR-5 ovarian; SK-OV-3 ovarian; U251 CNS.
Common to all, as to test: NCI anticancer screen, dose series, 48 h

Each structure is given as a SMILES string. Values joined by “and” are separate entries in the source; they are usually repeats but may differ in a detail not shown here. Equal entries are not always repeated.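 Grown in 96-well plates, cells were treated for 48 hours with each compound at five concentrations. Insufficient inhibition: endpoint recorded as highest concentration tested. GI50: concentration for 50% inhibition of growth. At the TGI there is no net growth.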

For `CCCCCCCCCCCCCCCCCC1=NCCN1CS(=O)(=O)O`, the GI50 is 5.07 µM in the assay with COLO 205 colon; 14.1 µM in the assay on HOP-62 NSCLC; 7.82 µM with HOP-92 NSCLC; 6.19 µM in the assay with M14 melanoma; 16.1 µM with NCI/ADR-RES ovarian; 15.4 µM with OVCAR-5 ovarian. Moreover, the figures for the GI50 with SK-OV-3 ovarian and in the assay on U251 CNS were 18.1 µM and 9.54 µM, respectively. Further, the TGI with COLO 205 colon was determined as 18.5 µM; with HOP-62 NSCLC, 31.4 µM; in the assay on HOP-92 NSCLC, 26.2 µM; with M14 melanoma, 21 µM; in the assay with NCI/ADR-RES ovarian it was 35.3 µM; with OVCAR-5 ovarian it was 32.7 µM. For the same molecule, the TGI came to 39.4 µM with SK-OV-3 ovarian and 29 µM in the assay on U251 CNS.
For `O=C(O)C1C(C(=O)Nc2ccc3c(c2)Cc2ccccc2-3)C2(Cl)C(Cl)=C(Cl)C1(Cl)C2(Cl)Cl` (stereo not drawn), the TGI in the assay on COLO 205 colon is 31.4 µM; with HOP-62 NSCLC, over 100 µM; in the assay on HOP-92 NSCLC, 57.3 µM; with M14 melanoma, 42.7 µM; in the assay on NCI/ADR-RES ovarian, over 100 µM; with OVCAR-5 ovarian it was 38.6 µM. The TGI in the assay on SK-OV-3 ovarian is over 100 µM; with U251 CNS, 29.7 µM.
As to `CC(C)[C@@]12C[C@@H](OC(=O)[C@H]3CO3)[C@@](C)(O1)[C@@H]1CC[C@@H](C)[C@H]1[C@@H]2OC(=O)/C=C/c1ccccc1`, the GI50 with COLO 205 colon is 23.2 µM; in the assay on HOP-62 NSCLC, 33.2 µM; in the assay on HOP-92 NSCLC it was 9.22 µM; with M14 melanoma, 27 µM; with NCI/ADR-RES ovarian, 0.799 µM; with OVCAR-5 ovarian it was 20.5 µM. Besides, the GI50 with SK-OV-3 ovarian was 18.2 µM; in the assay on U251 CNS, 22.9 µM. The TGI in the assay with COLO 205 colon is over 65.1 µM; in the assay with HOP-62 NSCLC, over 100 µM; in the assay with HOP-92 NSCLC, 27.1 µM; with M14 melanoma, over 100 µM; in the assay with NCI/ADR-RES ovarian, 35.9 µM; in the assay on OVCAR-5 ovarian, 68 µM. In addition, the values for the TGI in the assay with SK-OV-3 ovarian and in the assay with U251 CNS were 45.8 µM and over 80.6 µM, respectively.
Regarding `CCCCCCCC/C=C/CCCCCCCCC1=NCCN1CCO`, the GI50 in the assay on COLO 205 colon was 3.76 µM; in the assay with HOP-62 NSCLC, 5.29 µM; in the assay on HOP-92 NSCLC, 0.976 µM; in the assay on M14 melanoma, 2.16 µM; in the assay on NCI/ADR-RES ovarian, 8.44 µM; in the assay with OVCAR-5 ovarian, 10.8 µM. The GI50 was 16.1 µM in the assay on SK-OV-3 ovarian and 1.78 µM in the assay on U251 CNS. Besides, the TGI turned out to be 13.9 µM in the assay on COLO 205 colon; 29.4 µM in the assay on HOP-62 NSCLC; 3.4 µM in the assay with HOP-92 NSCLC; 5.11 µM in the assay on M14 melanoma; 38.4 µM in the assay with NCI/ADR-RES ovarian; 24 µM in the assay with OVCAR-5 ovarian. Moreover, the TGI in the assay on SK-OV-3 ovarian is 33.6 µM; in the assay on U251 CNS, 3.67 µM.
On to `COc1cccc(C2C(C#N)=C(N)Oc3cc(N)ccc32)c1` (stereo not drawn), for which the GI50 in the assay on COLO 205 colon was 0.385 µM; in the assay with HOP-62 NSCLC, 0.692 µM; in the assay with HOP-92 NSCLC, 0.31 µM; in the assay with M14 melanoma it was 0.341 µM; in the assay on NCI/ADR-RES ovarian, 0.346 µM; with OVCAR-5 ovarian it was 1.43 µM. For the same molecule, the GI50 in the assay with SK-OV-3 ovarian was 0.4 µM; with U251 CNS, 0.369 µM. For the same molecule, the TGI in the assay with COLO 205 colon is 2.09 µM; with HOP-62 NSCLC it was over 100 µM; in the assay with HOP-92 NSCLC it was 58.3 µM; in the assay on M14 melanoma, over 100 µM; in the assay with NCI/ADR-RES ovarian, 4.38 µM; with OVCAR-5 ovarian it was over 100 µM. Moreover, the TGI with SK-OV-3 ovarian stood at 3.5 µM.
For the molecule `CC(C)(C)[Si](C)(C)OCC1OC(n2cnc3c(NC(=O)c4ccccc4)ncnc32)CC1O` (stereo not drawn), the TGI was 33.1 µM in the assay on COLO 205 colon; 35.5 µM with HOP-62 NSCLC; 55.2 µM in the assay on HOP-92 NSCLC; 38.5 µM in the assay on M14 melanoma; 98.7 µM in the assay with NCI/ADR-RES ovarian; over 100 µM in the assay on OVCAR-5 ovarian. In addition, the TGI in the assay on SK-OV-3 ovarian was found to be 89.1 µM; with U251 CNS, 51.6 µM.
For `CC(C)CCOc1ccc(-c2n[nH]c(C(F)(F)F)c2-c2cncc(C#N)c2)c(O)c1`, the GI50 with COLO 205 colon was 1.68 µM; in the assay with HOP-62 NSCLC, 2.61 µM; in the assay with HOP-92 NSCLC, 0.519 µM; with M14 melanoma, 2.49 µM; in the assay on NCI/ADR-RES ovarian it was 2.2 µM; in the assay with OVCAR-5 ovarian it was 3.21 µM. The GI50 was 2.2 µM with SK-OV-3 ovarian and 2 µM with U251 CNS. Besides, the TGI in the assay with COLO 205 colon was 3.14 µM; in the assay with HOP-62 NSCLC it was 7.65 µM; with HOP-92 NSCLC it was 3.33 µM; in the assay with M14 melanoma, 9.13 µM; in the assay with NCI/ADR-RES ovarian, 7.35 µM; with OVCAR-5 ovarian it was over 100 µM. Further, the figures for the TGI with SK-OV-3 ovarian and in the assay with U251 CNS were 6.6 µM and 8.4 µM, respectively.
For `CC1/C=C/C=C/C=C/C=C/C=C/C=C/C=C/C(O[C@@H]2O[C@H](C)[C@H](O)[C@@H](O)[C@@H]2N)CC(O)C(C(=O)O)C(O)CC(=O)CC(O)CC(O)CC(O)CC(=O)CCCC(=O)CC(=O)OC1C(C)CC(C)C(O)CC(=O)c1ccc(N)cc1` (stereo partly drawn), the GI50 was 0.559 µM with COLO 205 colon; 0.063 µM and 0.192 µM in the assay on HOP-62 NSCLC; 0.184 µM in the assay on HOP-92 NSCLC; 0.0574 µM and 0.197 µM in the assay with M14 melanoma; 0.0626 µM and 0.209 µM in the assay on NCI/ADR-RES ovarian; 0.0792 µM and 0.357 µM in the assay with OVCAR-5 ovarian. Besides, the GI50 was 0.0674 µM and 0.298 µM in the assay with SK-OV-3 ovarian; 0.0552 µM and 0.204 µM with U251 CNS. Also, the TGI with COLO 205 colon was 1.72 µM; in the assay on HOP-62 NSCLC it was 0.118 µM and 0.402 µM; in the assay with HOP-92 NSCLC, 0.537 µM; in the assay with M14 melanoma it was 0.11 µM and 0.416 µM; in the assay on NCI/ADR-RES ovarian, 0.125 µM and 0.474 µM; with OVCAR-5 ovarian, 0.216 µM and 1.3 µM. Besides, the TGI was 0.119 µM and 0.908 µM in the assay with SK-OV-3 ovarian; 0.0996 µM and 0.49 µM in the assay with U251 CNS.
`Cc1cc2cc3cc(C)c(N(C)C)cc3nc2cc1N(C)C`: the GI50 in the assay with COLO 205 colon is 1.84 µM; in the assay with HOP-62 NSCLC, 5.08 µM; in the assay on HOP-92 NSCLC, 1.83 µM; in the assay with M14 melanoma, 3.76 µM; with NCI/ADR-RES ovarian, 31.7 µM; with OVCAR-5 ovarian, 8.37 µM. Also, the GI50 in the assay on SK-OV-3 ovarian is 2.87 µM; with U251 CNS, 1.42 µM. The TGI in the assay on COLO 205 colon is 7.41 µM; with HOP-62 NSCLC, 19.9 µM; with HOP-92 NSCLC, 8.36 µM; with M14 melanoma it was 18.4 µM; in the assay on NCI/ADR-RES ovarian, over 100 µM; in the assay on OVCAR-5 ovarian, over 100 µM. Also, the results for the TGI with SK-OV-3 ovarian and in the assay with U251 CNS were 25.4 µM and over 100 µM, respectively.
As to `CS(=O)CCCCCN=C=S` (stereo not drawn), the GI50 was 3.21 µM in the assay on COLO 205 colon; 12.5 µM in the assay with HOP-62 NSCLC; 3.55 µM in the assay with HOP-92 NSCLC; 3.3 µM in the assay on M14 melanoma; 4.72 µM with NCI/ADR-RES ovarian; 10.6 µM with OVCAR-5 ovarian. Further, the GI50 with SK-OV-3 ovarian is 13.7 µM; with U251 CNS it was 4.42 µM. The TGI came out at 12 µM in the assay with COLO 205 colon; 29.4 µM with HOP-62 NSCLC; 9.52 µM in the assay with HOP-92 NSCLC; 14.6 µM in the assay on M14 melanoma; 22 µM with NCI/ADR-RES ovarian; 25.5 µM in the assay with OVCAR-5 ovarian. Also, the TGI was determined as 27.3 µM in the assay on SK-OV-3 ovarian and 15.8 µM in the assay with U251 CNS.

Source of the values: PubChem BioAssay (NCI).
